pIC50: −log10 of the molar value. In brackets after ≈: the same amount, converted by molar mass. Activity calls are given as the source filed them. The calls are words filed in the database; no cut-off is given here.

One data set relates to A549. Kind of data set: Cytotoxicity against human A549 cells upto 12.5 uM incubated for 24 hrs by resazurin dye based cell viability assay. It counts as toxicity. As to conditions: a549, 24 h.
The test system of data set [1] is Mycolicibacterium smegmatis. Kind of data set: Antibacterial activity against Mycobacterium smegmatis mc2 122 assessed as bacterial growth inhibition incubated for 2 to 3 weeks by resazurin dye based assay. It counts as functional. The settings on record: time 2-3 weeks.
Another data set deals with Mycobacterium avium. Nature of the data set: Antibacterial activity against Mycobacterium avium ATCC 25291 assessed as bacterial growth inhibition incubated for 2 to 3 weeks by resazurin dye based assay. It counts as functional. The settings on record: time 2-3 weeks.
In another data set the test system is J774.1. Kind of data set: Cytotoxicity against mouse J774.1 cells upto 12.5 uM incubated for 24 hrs by resazurin dye based cell viability assay. It counts as toxicity. As to conditions: j774.1, 24 h.
In data set [2] the test system is Mycobacteroides abscessus. Kind of data set: Antibacterial activity against Mycobacterium abscessus ATCC 19977 assessed as bacterial growth inhibition incubated for 2 to 3 weeks by resazurin dye based assay. It counts as functional. As to conditions: time 2-3 weeks. In general terms: The colour change of resazurin is a common sign of viable cells or microbes.
The test system of data set [3] is Mycobacterium tuberculosis. Kind of data set: Antibacterial activity against Mycobacterium tuberculosis mc2 6230 assessed as bacterial growth inhibition incubated 2 to 3 weeks by resazurin dye based assay. The settings on record: time 2-3 weeks. It counts as functional.
Data set [4] relates to Mycobacterium tuberculosis. Kind of data set: Antibacterial activity against Mycobacterium tuberculosis H37Rv assessed as MIC of kanamycin A at 100 uM incubated for 24 hrs followed by kanamycin A addition measured after 6 days by alamarblue dye based assay. As to conditions: time 7.0 day. It counts as functional.
For a further data set, the target named is T1, N-acetyltransferase Eis (Mycobacterium tuberculosis (strain ATCC 25618 / H37Rv), UniProt P9WFK7).
T1 sequence (P9WFK7 whole entry): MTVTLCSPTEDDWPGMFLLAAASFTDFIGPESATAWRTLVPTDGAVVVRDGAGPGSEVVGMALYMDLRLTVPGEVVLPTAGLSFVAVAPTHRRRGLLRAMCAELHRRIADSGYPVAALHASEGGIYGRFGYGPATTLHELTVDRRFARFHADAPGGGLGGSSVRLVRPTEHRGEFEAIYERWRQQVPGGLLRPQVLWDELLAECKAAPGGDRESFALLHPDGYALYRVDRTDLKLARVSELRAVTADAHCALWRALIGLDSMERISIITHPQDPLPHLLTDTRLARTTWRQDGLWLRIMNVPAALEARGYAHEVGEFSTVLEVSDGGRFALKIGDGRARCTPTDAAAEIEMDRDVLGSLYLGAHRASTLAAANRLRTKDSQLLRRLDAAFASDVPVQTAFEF
Nature of the data set: Inhibition of wild-type Mycobacterium tuberculosis Eis expressed in Escherichia coli BL21(DE3) cells incubated for 5 mins by Ellman's method. For orientation: Ellman's reagent forms a yellow product with free thiols.

Data set [5] deals with Mycobacterium tuberculosis. Nature of the data set: Antibacterial activity against Mycobacterium tuberculosis H37Ra assessed as bacterial growth inhibition incubated 2 to 3 weeks by resazurin dye based assay. As to conditions: time 2-3 weeks. It counts as functional.
In a further data set the test system is HEK293. Kind of data set: Cytotoxicity against HEK293 cells upto 12.5 uM incubated for 24 hrs by resazurin dye based cell viability assay. As to conditions: human, hek293, 24 h. It is filed as toxicity.
In data set [6] the test system is Mycobacterium intracellulare. Nature of the data set: Antibacterial activity against Mycobacterium intracellulare ATCC 13950 assessed as bacterial growth inhibition incubated for 2 to 3 weeks by resazurin dye based assay. It is filed as functional. The settings on record: time 2-3 weeks.
The test system of data set [7] is Mycobacterium tuberculosis. Nature of the data set: Antibacterial activity against Mycobacterium tuberculosis H37Rv assessed as MIC of kanamycin A at 71.7 uM incubated for 24 hrs followed by kanamycin A addition measured after 6 days by alamarblue dye based assay. It counts as functional, organism-based. The settings on record: time 7.0 day.
Data set [8] concerns Mycobacterium tuberculosis. Kind of data set: Antibacterial activity against Mycobacterium tuberculosis K204 assessed as MIC of kanamycin A at 71.7 uM incubated for 24 hrs followed by kanamycin A addition measured after 6 days by alamarblue dye based assay. It is filed as functional, organism-based. The settings on record: time 7.0 day.
Data set [9] deals with Mycobacterium tuberculosis. Kind of data set: Antibacterial activity against Mycobacterium tuberculosis H37Rv assessed as MIC of kanamycin A at 54.8 uM incubated for 24 hrs followed by kanamycin A addition measured after 6 days by alamarblue dye based assay. As to conditions: time 7.0 day. It counts as functional, organism-based.
Data set [10] concerns Mycobacterium tuberculosis. Nature of the data set: Antibacterial activity against Mycobacterium tuberculosis K204 assessed as MIC of kanamycin A at 54.8 uM incubated for 24 hrs followed by kanamycin A addition measured after 6 days by alamarblue dye based assay. It counts as functional, organism-based. The settings on record: time 7.0 day.
Data set [11] relates to Mycobacterium tuberculosis. Kind of data set: Antibacterial activity against Mycobacterium tuberculosis H37Rv assessed as MIC of kanamycin A at 8.2 uM incubated for 24 hrs followed by kanamycin A addition measured after 6 days by alamarblue dye based assay. The settings on record: 168 h, time 7 day. It counts as functional.
Data set [12] relates to Mycobacterium parascrofulaceum. Kind of data set: Antibacterial activity against Mycobacterium parascrofulaceum ATCC BAA-614 assessed as bacterial growth inhibition incubated for 2 to 3 weeks by resazurin dye based assay. It counts as functional. As to conditions: time 2-3 weeks.
The subject of data set [13] is Mycobacterium tuberculosis. Kind of data set: Antibacterial activity against Mycobacterium tuberculosis H37Rv assessed as MIC of kanamycin A at 19.7 uM incubated for 24 hrs followed by kanamycin A addition measured after 6 days by alamarblue dye based assay. It counts as functional. The settings on record: 168 h, time 7 day.
The test system of data set [14] is Mycobacterium tuberculosis. Nature of the data set: Antibacterial activity against Mycobacterium tuberculosis mc2 6230 assessed as MIC of kanamycin A at 25 uM incubated for 24 hrs followed by kanamycin A addition measured after 6 days by alamarblue dye based assay. The settings on record: mc2 6230, 168 h, time 7 day. It is filed as functional.
The subject of data set [15] is Mycobacterium tuberculosis. Nature of the data set: Antibacterial activity against Mycobacterium tuberculosis mc2 6230 K204 assessed as MIC of kanamycin A at 25 uM incubated for 24 hrs followed by kanamycin A addition measured after 6 days by alamarblue dye based assay. As to conditions: Mycobacterium tuberculosis, mc2 6230 K204, 168 h, time 7 day, read-out: MIC. It counts as functional.

For data set [16], the system named is Mycobacterium tuberculosis. Kind of data set: Antibacterial activity against Mycobacterium tuberculosis H37Rv assessed as MIC of kanamycin A at 27.5 uM incubated for 24 hrs followed by kanamycin A addition measured after 6 days by alamarblue dye based assay. It counts as functional. As to conditions: 168 h, time 7 day.
Data set [17] deals with Mycobacterium tuberculosis. Kind of data set: Antibacterial activity against Mycobacterium tuberculosis H37Rv assessed as MIC of kanamycin A at 5 uM incubated for 24 hrs followed by kanamycin A addition measured after 6 days by alamarblue dye based assay. It counts as functional. As to conditions: 168 h, time 7 day.

In general, MIC refers to the lowest concentration found to suppress growth. One may read the pIC50 as the negative decadic logarithm of the IC50, by convention in mol/L. `Clc1cccc(COc2ccccc2CNCc2ccccc2)c1`: the Activity result in the data set on A549, in the data set on J774.1 and in the data set with HEK293 was “Non-Toxic” each time. Moreover, the MIC in data set [1] was 62.5 µM (≈ 21.1 µg/mL); in the data set with Mycobacterium avium, above 62.5 µM; in data set [2] it was 31.3 µM (≈ 10.6 µg/mL); in data set [3], 50 µM (≈ 16.9 µg/mL); in [5], 31.3 µM (≈ 10.6 µg/mL). Moreover, the result in [4] was Active. In addition, the pIC50 at N-acetyltransferase Eis was 5.19.
Consider `Fc1ccc(COc2ccc(CNCc3cccnc3)cc2)cc1`, for which the MIC in data set [6] was 31.3 µM (≈ 10.1 µg/mL); in the data set with Mycobacterium avium, above 62.5 µM; in [2] it was 31.3 µM (≈ 10.1 µg/mL); in data set [3], 50 µM (≈ 16.1 µg/mL); in data set [5], 31.3 µM (≈ 10.1 µg/mL). For the same compound, the outcome in data set [4], in data set [7] and in data set [8] was Active. For the same compound, the pIC50 against N-acetyltransferase Eis was 5.41.
Take `Clc1ccc(COc2cccc(CNCc3ccncc3)c2)cc1`: the result in data set [9], in data set [4] and in [10] was Active. For the same compound, the minimum inhibitory concentration (MIC) in data set [6] is 31.3 µM (≈ 10.6 µg/mL); in the data set on Mycobacterium avium it was above 62.5 µM; in data set [2] it was above 62.5 µM; in [3], 50 µM (≈ 16.9 µg/mL); in [5], 31.3 µM (≈ 10.6 µg/mL). At N-acetyltransferase Eis, this compound showed a pIC50 of around 4.70.
For the compound `Fc1ccc(COc2ccccc2CNCc2cccnc2)cc1`, the minimum inhibitory concentration (MIC) in data set [6] was above 62.5 µM; in data set [1], above 62.5 µM; in data set [11], 2.5 µg/mL; in the data set on Mycobacterium avium, above 62.5 µM; in [2] it was above 62.5 µM; in data set [3] it was above 100 µM. The MIC was above 62.5 µM in [12] and 125 µM (≈ 40.3 µg/mL) in [5]. Further, the pIC50 at N-acetyltransferase Eis is 5.00.
As for `Fc1ccc(COc2ccc(CNCc3ccncc3)cc2)cc1`, the minimum inhibitory concentration (MIC) in [6] was 15.6 µM (≈ 5.03 µg/mL); with Mycobacterium avium it was above 62.5 µM; in data set [2] it was above 62.5 µM; in data set [3], 50 µM (≈ 16.1 µg/mL); in data set [5], 7.8 µM (≈ 2.51 µg/mL); in data set [13], at most 1.25 µg/mL. This compound had a pIC50 against N-acetyltransferase Eis of around 5.80.
As to `Clc1ccc(COc2ccc(CNCc3cccnc3)cc2)cc1`, the MIC in [6] was 15.6 µM (≈ 5.29 µg/mL); in the data set on Mycobacterium avium, above 62.5 µM; in data set [14] it was below 1.25 µM; in [2], above 62.5 µM; in [3], 50 µM (≈ 16.9 µg/mL); in [15] it was at most 1.25 µM. The MIC is at most 1.25 µg/mL in data set [16] and 31.3 µM (≈ 10.6 µg/mL) in data set [5]. In addition, the pIC50 against N-acetyltransferase Eis is 5.54.
On to `Clc1cccc(COc2ccccc2CNCc2ccncc2)c1`, for which the MIC in data set [6] was above 62.5 µM; in [1] it was above 62.5 µM; in the data set on Mycobacterium avium, above 62.5 µM; in data set [2] it was above 62.5 µM; in data set [3] it was 100 µM (≈ 33.9 µg/mL); in data set [17] it was 2.5 µg/mL. Further, the MIC in data set [12] came out at 31.3 µM (≈ 10.6 µg/mL); in data set [5], 62.5 µM (≈ 21.2 µg/mL). In addition, on N-acetyltransferase Eis, the pIC50 was 5.05.
`Clc1ccc(COc2ccccc2CNCc2ccccc2)cc1`: the Activity result in the data set with A549, in the data set with J774.1 and in the data set with HEK293 was “Non-Toxic” throughout. Further, the MIC in data set [6] was 31.3 µM (≈ 10.6 µg/mL); in [1], 31.3 µM (≈ 10.6 µg/mL); in the data set on Mycobacterium avium it was above 62.5 µM; in data set [3], 50 µM (≈ 16.9 µg/mL); in data set [12], 31.3 µM (≈ 10.6 µg/mL); in [5], 31.3 µM (≈ 10.6 µg/mL). The outcome in data set [4] was Active. This compound also had a pIC50 at N-acetyltransferase Eis of 5.27.

Source of the values: ChEMBL document CHEMBL5346863, “Discovery of substituted benzyloxy-benzylamine inhibitors of acetyltransferase Eis and their anti-mycobacterial activity” (Eur J Med Chem, 2022).
